From patent publication US7816134B2, “Method of extensive culture of antigen-specific cytotoxic T cells” (Takara Bio Inc., priority 2000, dated 2010)
Where two headings read alike, the source gives them in different places.

Tests used:
[1] = tested on: 888mel; MART1 expressed cells not having HLA-A2.1
Method: (§2) In the evaluation, as target cells, there were used HLA-A2.1-having EBV transformed B-cells which were cultured in the absence of the epitope peptide (name of cells: 221A2.1); a cancer cell line-having HIA-A2.1 which was cultured for two nights in the presence of 100 U/ml IFN-γ (name of cells: 624mel; MART1 expressed cells having HLA-A2.1); or a cancer cell line not having HLA-A2.1 (name of cells: 888mel; MART1 expressed cells not having HLA-A2.1).
(§3) Stimulation by a peptide was not added at all during this culture. On the first day of the initiation of the culture, IL-2 was added so as to have a final concentration of 120 U/ml. […] However, in the group with no addition of the sample, the sample was not added even during medium exchange.

[2] = tested on: HLA-A2.1-having EBV transformed B-cells (221A2.1); assay: Specific cytotoxic activity of MART1-specific CTLs after expansion, EBV transformed B-cell target; type: cell-based, human; conditions: for Cytotoxic Activity (%): target cells 221A2.1, sample induction +, expansion +, peptide addition +
Method: as §2, §3

[3] = tested on: anti-influenza virus memory CTLs (FluMPA2.1); assay: Expansion ratio of anti-influenza virus memory CTLs (FluMPA2.1), REM method (EBV-B cells added); type: cell-based, human; conditions: Example 3-2, sample 10 μg/ml during CTL induction +, addition of EBV-B cells +
[4] = tested on: HLA-A2.1-having EBV transformed B-cells (221A2.1); assay: Specific cytotoxic activity of MAGE3-specific CTLs after expansion; type: cell-based, human; conditions: for Cytotoxic Activity (%): sample induction +, expansion +
Text: (§1) CTLs prepared in item (1) of Example 2-1 were washed with 5HRPMI, and then made into a suspension having a concentration of 5×10^4 cells/ml. On the other hand, allogenic PBMCs not having HLA-A24 and HLA-A2.1 which were collected in the same manner as in item (1) of Example 1-1 were subjected to X-ray irradiation (3300R), and the cells were washed with the medium and then made into a suspension having a concentration of 5×10^6 cells/ml. These CTLs (2.5×10^4 cells) and allogenic PBMCs (1.25×10^7 cells) were suspended in 10 ml of 5HRPMI, and anti-CD3 antibody (manufactured by Janssen-Kyowa) was further added thereto so as to give a final concentration of 50 ng/ml. The mixture was placed into a flask of 12.5 cm^2 (manufactured by Falcon), and the cells were cultured in a wet-type CO2 incubator at 37° C. for 14 days. […] The expansion ratio (× times ratio) was calculated by dividing the cell count after the expansion by the cell count before the expansion.

[5] = tested on: HLA-A2.1-having EBV transformed B-cells (221A2.1); conditions: for Cytotoxic Activity (%) E/T Ratio 10: Example 3-2, REM method, FluMPA2.1, sample 10 μg/ml during CTL induction +, during expansion +, addition of EBV-B cells +
[6] = tested on: HLA-A2.1-having EBV transformed B-cells (221A2.1); assay: Cytotoxic activity of anti-tumor-associated antigen(MAGE3)-specific CTLs on the thirty-fifth day after the initiation of induction; conditions: 10 μg/ml
[7] = tested on: anti-tumor-associated antigen(MAGE3)-specific CTLs; assay: Expansion ratio of MAGE3-specific CTLs; type: cell-based, human; conditions: sample 10 μg/ml: induction +, 14 days
Text: as §1

[8] = tested on: HLA-A2.1-having EBV transformed B-cells (221A2.1); conditions: for Cytotoxic Activity (%) E/T Ratio 10: Example 3-2, FluMPA2.1, sample 10 μg/ml during CTL induction +, during expansion +, addition of EBV-B cells −; for Cytotoxic Activity (%): sample induction +
[9] = tested on: anti-tumor-associated antigen(MART1)-specific CTLs; assay: Expansion ratio of MART1-specific CTLs; type: cell-based, human; conditions: sample 10 μg/ml: induction +, 14 days
Text: as §1

[10] = tested on: anti-influenza virus memory CTLs (FluMPA2.1); type: cell-based, human

In the case of hyaluronic acid, the “Cytotoxic Activity (%)” value [1] is reported as 0%, the “cytotoxic activity after expansion for 14 days (in words)” value ([2]; MART1-specific CTLs, sample 10 μg/ml during CTL induction and during expansion) is reported as “specific, high cytotoxic activity” and the “Cytotoxic Activity (%)” value ([2]; E/T ratio 2) is reported as 9.1%. The “Cytotoxic Activity (%)” value ([2]; E/T ratio 6) was 52.8%, the “Cytotoxic Activity (%)” value ([2]; E/T ratio 17) was 74.4% and the “Expansion Ratio” value [3] was “× 587”. For the same substance, the “cytotoxic activity after expansion for 14 days (in words)” value ([4]; MAGE3-specific CTLs, sample 10 μg/ml during CTL induction and during expansion) was “specific, high cytotoxic activity”, the “Cytotoxic Activity (%)” value ([4]; peptide addition +, E/T ratio 2) was 50.3% and the “Cytotoxic Activity (%)” value ([4]; peptide addition +, E/T ratio 6) was 67.7%. The “Cytotoxic Activity (%)” value ([4]; peptide addition −, E/T ratio 2) was 3.6%, the “Cytotoxic Activity (%) E/T Ratio 10” value ([5]; peptide addition +) was 95.5% and the “Cytotoxic Activity (%) E/T Ratio 10” value ([5]; peptide addition −) was 8.1%. The “cytotoxic activity after expansion according to the REM method (in words)” value ([5]; sample added at the stage of CTL induction prior to the expansion, EBV-B cells added) was “maintained at a high level”, the “difference in the cytotoxic activity by the presence or absence of the addition during the induction” value [6] was “almost no difference” and the “Expansion Ratio” value [7] was “× 217”. The “Cytotoxic Activity (%) E/T Ratio 10” value ([8]; peptide addition +) was 60.0%, the “Cytotoxic Activity (%) E/T Ratio 10” value ([8]; peptide addition −) was 2.3% and the “Cytotoxic Activity (%)” value ([8]; Example 4-1, expansion +, peptide addition +, E/T ratio 1) was 31.1%. For the same substance, the “Cytotoxic Activity (%)” value ([8]; Example 4-1, expansion +, peptide addition +, E/T ratio 3) was 49.8%, the “Cytotoxic Activity (%)” value ([8]; Example 4-1, expansion +, peptide addition +, E/T ratio 10) was 90.8% and the “Cytotoxic Activity (%)” value ([8]; Example 4-1, expansion +, peptide addition +, E/T ratio 30) was 105.6%. The “Cytotoxic Activity (%)” value ([8]; Example 4-1, expansion +, peptide addition −, E/T ratio 1) was 7.3%, the “Cytotoxic Activity (%)” value ([8]; Example 4-1, expansion +, peptide addition −, E/T ratio 3) was 8.6% and the “Cytotoxic Activity (%)” value ([8]; Example 4-1, expansion +, peptide addition −, E/T ratio 10) was 13.1%. For the same substance, the “Cytotoxic Activity (%)” value ([8]; Example 4-1, expansion +, peptide addition −, E/T ratio 30) was 17.0%, the “Cytotoxic Activity (%)” value ([8]; Example 4-2, expansion +, peptide addition +, E/T ratio 1) was 7.2% and the “Cytotoxic Activity (%)” value ([8]; Example 4-2, expansion +, peptide addition +, E/T ratio 3) was 23.3%. For the same substance, the “Cytotoxic Activity (%)” value ([8]; Example 4-2, expansion +, peptide addition +, E/T ratio 10) was 59.6%, the “Cytotoxic Activity (%)” value ([8]; Example 4-2, expansion +, peptide addition +, E/T ratio 30) was 85.1% and the “Cytotoxic Activity (%)” value ([8]; Example 4-2, expansion +, peptide addition −, E/T ratio 1) was 0%. The “Cytotoxic Activity (%)” value ([8]; Example 4-2, expansion +, peptide addition −, E/T ratio 3) was 0%, the “Cytotoxic Activity (%)” value ([8]; Example 4-2, expansion +, peptide addition −, E/T ratio 10) was 1.9% and the “Cytotoxic Activity (%)” value ([8]; Example 4-2, expansion +, peptide addition −, E/T ratio 30) was 14.3%. The “Cytotoxic Activity (%)” value ([8]; Example 4-2, expansion −, peptide addition +, E/T ratio 1) was 9.9%, the “Cytotoxic Activity (%)” value ([8]; Example 4-2, expansion −, peptide addition +, E/T ratio 3) was 22.1% and the “Cytotoxic Activity (%)” value ([8]; Example 4-2, expansion −, peptide addition +, E/T ratio 10) was 47.7%. The “Cytotoxic Activity (%)” value ([8]; Example 4-2, expansion −, peptide addition +, E/T ratio 30) was 78.0%, the “Cytotoxic Activity (%)” value ([8]; Example 4-2, expansion −, peptide addition −, E/T ratio 1) was 3.0% and the “Cytotoxic Activity (%)” value ([8]; Example 4-2, expansion −, peptide addition −, E/T ratio 3) was 1.4%. The “Cytotoxic Activity (%)” value ([8]; Example 4-2, expansion −, peptide addition −, E/T ratio 10) was 4.7%, the “Cytotoxic Activity (%)” value ([8]; Example 4-2, expansion −, peptide addition −, E/T ratio 30) was 9.3% and the “cytotoxic activity after expansion for 14 days (in words)” value ([8]; sample 10 μg/ml only during CTL induction) was “specific, high cytotoxic activity”. For the same substance, the “Expansion Ratio” value [9] was “× 217”, the “Expansion Ratio” value ([10]; Example 3-2, sample 10 μg/ml during CTL induction +, during expansion +, addition of EBV-B cells −) was “× 335” and the “Expansion Ratio” value ([10]; Example 4-1, sample 10 μg/ml: induction +, expansion +, 14 days) was “× 493”. The “Expansion Ratio” value ([10]; Example 4-2, sample 10 μg/ml: induction +, expansion +, 14 days) was “× 423” and the “Expansion Ratio” value ([10]; Example 4-2, sample 10 μg/ml: induction +, expansion −, 14 days) was “× 393”.
